Test results reported in patent US9023889B2, “Use of ascorbic acid derivatives for the functionalization of matrices” (Merck Patent GmbH, priority 2006, dated 2015).

Legend:
gelatine plates = assay: Evidence of bonding (skin model), gelatine plates; details: 24 hrs at 87% atmospheric humidity, eluted with iPrOH in ultrasound bath
Method: 4% solutions of a mixture of two isomers of 2-(3,4-dihydroxy-5-oxo-2,5-di-hydrofuran-2-yl)-2-hydroxyethyl 2-(4-diethylamino-2-hydroxybenzoyl)benzo-ate, prepared in accordance with Example 1 or 2, abbreviated to DHAB below, in various solvent systems are prepared. 40 µl of each of these are applied to 2.5×7.5 cm gelatine plates and stored at 87% atmospheric humidity for 24 hrs. The plates are then eluted with 50 ml of iPrOH in an ultrasound bath for 5 min. The bonding to the gelatine is carried out by comparison with a corresponding standard solution: […]

chicken skin = assay: Evidence of bonding to chicken skin; details: 2% in dimethylisosorbide, 2.66 μl/cm^2, exposure 16 hours, isopropanol extraction, photometric at 354 nm
Method: A) DHAB is dissolved to the extent of 2% in dimethylisosorbide. The solution is applied to chicken skin at an application rate of 2.66 μl/cm^2. After an exposure time of 16 hours, the samples are extracted with isopropanol in an ultrasound bath. The extracts are measured photometrically at 354 nm and compared with a 100% value (=application solution without use). The difference in the recovery compared with the 100% value corresponds here to the proportion of active compound bonded to the skin. For DHAB, a bound proportion of 76% is found, while the non-bonding comparative substance DHHB has, as expected, a low value of only 3%.

pig skin = assay: Evidence of bonding to pig skin; details: pig skin 24 h
Method: • 2% solution of DHAB in Arlasolve DMI sample (A) and Pelemol BIP sample (B) • formulation containing 1% of DHAB sample (C) [=54-07-5-A, from Example V] • 2% solution of DHHB in Arlasolve DMI sample (D) and isopropyl myristate sample (E) formulations containing 0.84% of DHHB sample (F) [=54-07-5-B from Example V] and 0.84% of DHHB+0.37% of vitamin C sample (G) [=54-07-5-C from Example V]. • pig skin is cut to 2.5×7.5 cm and placed on Plexiglas specimen slides. Procedure:
50 µl of each of samples (A) to (G) are dripped onto the specimen slides with pig skin, spread using a plastic spatula, and the specimen slides are stored in a desiccator [87% atmospheric humidity through sat. KCl solution] at room temperature for 24 h. The specimen slides are then rinsed with 50 ml of isopropanol into volumetric flasks, treated in an ultrasound bath for 5 min, clear-filtered via syringe filters (cloudiness due to detached skin constituents and measured by UV spectrometer (400-250 nm; UVmax˜355 nm) (residue 1 to 7). The 100% comparative value used are 50 ml isopropanol solutions of in each case 50 µl of samples (A) to (G), which are likewise measured by UV spectrometer.

Human hair samples = assay: Evidence of bonding to hair (SEM); details: 0.2% solution in ethanol/water=80/20, 8 h, rinsed; comparison with DHHB
Method: Human hair samples are stirred with a 0.2% ethanolic active-compound solution of DHAB or DHHB (ethanol/water=80/20) for 8 h, subsequently rinsed with ethanol/water=80/20 and sent for SEM measurement (SEM=scanning electron microscope).

prolyl-4-hydroxylase = details: cited from earlier work

## CCN(CC)c1ccc(C(=O)c2ccccc2C(=O)OC[C@@H](O)[C@H]2OC(=O)C(O)=C2O)c(O)c1 [DHAB, (R)-2-((R)-3,4-dihydroxy-5-oxo-2,5-dihydrofuran-2-yl)-2-hydroxyethyl 2-(4-diethylamino-2-hydroxybenzoyl)benzoate]
Gelatine plates; 4% solution in EG/water 94/6 on gelatine plate
  Non-extractable content and therefore bonded to the skin: 97.0%
Gelatine plates; 4% solution in i-PrOH on gelatine plate
  Non-extractable content and therefore bonded to the skin: 12.5%
Chicken skin
  bound proportion (proportion of active compound bonded to the skin): 76%
Pig skin; 1% in W/O 54-07-5-A
  Bonding (non-extractable residue): 91%
Pig skin; 2% in Arlasolve DMI
  Bonding (non-extractable residue): 97%
Pig skin; 2% in Pelemol BIP
  Bonding (non-extractable residue): 89%
Human hair samples
  active-compound adduction onto the hair cuticles (SEM picture): clearly increasingly evident

## CCCCCCOC(=O)c1ccccc1C(=O)c1ccc(N(CC)CC)cc1O [DHHB, hexyl 2-(4-diethylamino-2-hydroxybenzoyl)benzoate]
Chicken skin
  bound proportion (proportion of active compound bonded to the skin): 3%
Pig skin; 0.84% in W/O 54-07-5-B
  Bonding (non-extractable residue): 5%
Pig skin; 2% in Arlasolve DMI
  Bonding (non-extractable residue): 0%
Pig skin; 2% in isopropyl myristate
  Bonding (non-extractable residue): 2%

## CC(=O)Oc1ccccc1C(=O)OC[C@H](OC(=O)c1ccccc1OC(C)=O)[C@H]1OC(=O)C(O)=C1O [O^5O^6-bis(2-acetoxybenzoyl) L-ascorbate]
prolyl-4-hydroxylase
  supporting the activity of the enzyme prolyl-4-hydroxylase: capable of supporting the activity
prolyl-4-hydroxylase; compared with the monosubstituted compound
  affinity to the enzyme: lower affinity

## CC(=O)Oc1ccccc1C(=O)OC[C@H](O)[C@H]1OC(=O)C(O)=C1O [O^6-(2-acetoxybenzoyl) L-ascorbate]
prolyl-4-hydroxylase
  supporting the activity of the enzyme prolyl-4-hydroxylase: capable of supporting the activity
